Measured values reported in US20130123325A1, “USE OF BOCEPREVIR AND RELATED COMPOUNDS IN ATHEROSCLEROSIS, HEART FAILURE, RENAL DISEASES, LIVER DISEASES OR INFLAMMATORY DISEASES” (priority 2011, published 2013).

Biological target: T1, Recombinant human cathepsin A (Homo sapiens, UniProt P10619)
T1 construct: Recombinant human cathepsin A (residues 29-480, with a C-terminal 10-His tag); 10-His (C); purchased R & D Systems 1049-SE
T1 sequence (P10619 29-326 limits assumed): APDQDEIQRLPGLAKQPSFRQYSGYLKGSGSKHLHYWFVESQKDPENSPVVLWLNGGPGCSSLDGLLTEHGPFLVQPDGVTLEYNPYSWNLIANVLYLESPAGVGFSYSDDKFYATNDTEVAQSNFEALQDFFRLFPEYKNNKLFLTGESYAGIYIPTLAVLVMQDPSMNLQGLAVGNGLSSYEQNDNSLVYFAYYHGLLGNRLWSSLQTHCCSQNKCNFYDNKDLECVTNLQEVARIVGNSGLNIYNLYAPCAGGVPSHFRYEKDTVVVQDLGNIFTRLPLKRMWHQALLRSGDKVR
T1 sequence (P10619 327-480 limits assumed): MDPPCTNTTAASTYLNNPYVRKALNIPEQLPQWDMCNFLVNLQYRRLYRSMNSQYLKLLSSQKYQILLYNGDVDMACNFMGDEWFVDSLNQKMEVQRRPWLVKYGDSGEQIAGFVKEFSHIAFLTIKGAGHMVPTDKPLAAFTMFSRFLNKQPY
Assay: Cathepsin A inhibitory activity
Format: biochemical
Settings: Bodipy FL-labeled bradykinin substrate 2 μM, pH 5.5, microfluidic capillary electrophoresis
Description: Recombinant human cathepsin A (residues 29-480, with a C-terminal 10-His tag; R & D Systems, # 1049-SE) was proteolytically activated with recombinant human cathepsin L (R & D Systems, # 952-CY). Briefly, cathepsin A was incubated at 10 μg/ml with cathepsin L at 1 μg/ml in activation buffer (25 mM 2-(morpholin-4-yl)-ethanesulfonic acid (MES), pH 6.0, containing 5 mM dithiothreitol (DTT)) for 15 min at 37° C. Cathepsin L activity was then stopped by the addition of the cysteine protease inhibitor E-64 (N-(trans-epoxysuccinyl)-L-leucine-4-guanidinobutylamide; Sigma-Aldrich, # E3132; dissolved in activation buffer/DMSO) to a final concentration of 10 μM.
The activated cathepsin A was diluted in assay buffer (25 mM MES, pH 5.5, containing 5 mM DTT) and mixed with the test compound (dissolved in assay buffer containing (v/v) 3% DMSO) or, in the control experiments, with the vehicle in a multiple assay plate. […]
Uncleaved substrate and product were then separated by a microfluidic capillary electrophoresis on a LabChip® 3000 Drug Discovery System (12-Sipper-Chip; Caliper Life Sciences) and quantified by determination of the respective peak areas. Substrate turnover was calculated by dividing product peak area by the sum of substrate and product peak areas, and the enzyme activity and the inhibitory effect of the test compound thus quantified. […]

IC50: 1000 nM
Structure (SMILES): CC(C)(C)NC(=O)N[C@H](C(=O)N1C[C@H]2[C@@H]([C@H]1C(=O)NC(CC1CCC1)C(=O)C(N)=O)C2(C)C)C(C)(C)C (stereo partly drawn) [Boceprevir, (1R,2S,5S)—N-[(2E)-4-amino-1-cyclobutyl-3,4-dioxobutan-2-yl]-3-{(2S)-2-[(tert-butylcarbamoyl)amino]-3,3-dimethylbutanoyl}-6,6-dimethyl-3-azabicyclo[3.1.0]hexane-2-carboxamide]
